The text below walks through data of ChEMBL document CHEMBL2203172, “Synthesis of chiral hydroxylated enones as potential anti-tumor agents” (Bioorg Med Chem Lett, 2012).

For one assay, the system named is WRL68. Nature of the assay: Cytotoxicity against human WRL68 cells. Type of assay: cell-based.
Another assay relates to HL-60. Nature of the assay: Cytotoxicity against human HL60 cells. It is filed as functional, cell-based.
Another assay has as its system HepG2. Nature of the assay: Cytotoxicity against human HepG2 cells. Type of assay: functional, cell-based.

Usually IC50 stands for the midpoint of a concentration-inhibition curve. The low end stands for greater potency, the high end for weaker potency.

With `CCCCCCCO[C@H]1C=C(COC(C)=O)C(=O)[C@H](O)[C@H]1O`, the values for the IC50 with WRL68, with HL-60 and in the assay on HepG2 were 152 µM, 39.8 µM and over 50 µM, respectively.
For `CCCCCO[C@H]1C=C(COC(C)=O)C(=O)[C@H](O)[C@H]1O`, in that order: 169 µM, 3.1 µM and 16.1 µM.
Compound `CC(=O)OCC1=C[C@H](OCc2ccc(-c3ccccc3)cc2)[C@H](O)[C@@H](O)C1=O` had an IC50 with WRL68 of 71.3 µM.
For `OCC1=C[C@H](O)[C@H](O)[C@@H](O)[C@@H]1O` [STREPTOL], the figures for the IC50 in the assay on WRL68, in the assay with HL-60 and in the assay on HepG2 were over 200 µM, over 50 µM and over 50 µM, respectively.
`CO[C@H]1C=C(COC(C)=O)C(=O)[C@H](O)[C@H]1O`: the half-inhibitory concentration (IC50) was over 200 µM in the assay on WRL68, over 50 µM in the assay with HL-60 and over 50 µM with HepG2.
For the compound `CC(=O)OCC1=C[C@H](OCc2ccc3ccccc3c2)[C@H](O)[C@@H](O)C1=O`, the values for the IC50 with WRL68, in the assay with HL-60 and with HepG2 were over 200 µM, over 50 µM and over 50 µM, respectively.
Turning to `CCCCCO[C@@H]1C=C(COC(C)=O)C(=O)[C@H](O)[C@H]1O`, the half-maximal inhibitory concentration (IC50) in the assay on WRL68 was 48.3 µM; with HL-60, 2.6 µM; in the assay on HepG2, 10.1 µM.
Consider `CCCO[C@H]1C=C(COC(C)=O)C(=O)[C@H](O)[C@H]1O`, for which the results for the IC50 in the assay with WRL68, in the assay with HL-60 and in the assay with HepG2 were 191 µM, 10.1 µM and 33.6 µM, respectively.
